In data set [1] the test system is Spodoptera frugiperda. Also noted: method as in Gallo et al. (2006). The following applies: 0.1 mg/g; ref Gallo et al. (2006); cited from earlier work.
A further data set deals with Aphis fabae. Set-up: method as in Lattanzio et al. (2000). The following applies: 0.1 M; ref Lattanzio et al. (2000); cited from earlier work.
Data set [2] has as its system Helicoverpa armigera. Set-up: method as in Liu et al. (2015). The settings on record: 3 and 10 mg/g; ref Liu et al. (2015); cited from earlier work.
The test system of another data set is Bactrocera Cucurbitae. Set-up: method as in Sharma and Sohal (2013). The settings on record: 125 ppm; ref Sharma and Sohal (2013); cited from earlier work.
In another data set the test system is Acyrthosiphon pisum. Set-up: method as in Goławska et al. (2014). The settings on record: ref Goławska et al. (2014), cited from earlier work.
Data set [3] has as its system Spodoptera frugiperda. Set-up: method as in Diaz Napal and Palacios (2015). The settings on record: 100 µg/cm^2; ref Diaz Napal and Palacios (2015); cited from earlier work.
The nature of data set [4]: Solubility in natural deep eutectic solvents (saturated solutions, UV-VIS). The following applies: 1,2-propanediol: choline chloride: water (1:1:1), water 7.71%; 24 h at 50 °C; mean ± SD, n = 3. Format: physicochemical. The procedure: As an extension of these studies, we have investigated the solubility of six insecticidal metabolites in a variety of NADES. The solvent selection framework consisted of the following steps: • Preliminary solvent screening: a pre-selected set of 20 NADES was used as a starting point to identify and rank potential NADES candidates (Table 3). Selection constraints were imposed on important properties such as viscosity and stability.
• Secondary screening: solubility tests were performed to determine the best solvent for each of the metabolites. Saturated solutions, generated by adding an excess amount of each compound to different NADES, were kept under constant stirring (1100 rpm) for 24 h at 50 °C. The 20 candidates were ranked in decreasing order of solvent power. • Solubility verification: For the verification of solubilities, samples were centrifuged for 5 min at 2000 rpm and subsequently diluted suitably with methanol for spectrophotometric analysis (UV-1800 UV–VIS spectrophotometer, Shimadzu Europe GmbH, Duisburg, Germany).

In a further data set the test system is Spodoptera litura. The following applies: 0.7–0.8 µg/ml; ref Mallikarjuna et al. (2004); cited from earlier work.
The subject of data set [5] is Helicoverpa armigera. Set-up: method as in Li et al. (2016). The settings on record: ref Li et al. (2016), cited from earlier work.
The conditions of data set [6]: ref Dai et al. (2013, 2015); cited from earlier work.
The subject of data set [7] is Lymantria dispar. Set-up: method as in Beninger and Abou-Zaid (1997). The settings on record: 0.05%, day 15; ref Beninger and Abou-Zaid (1997); cited from earlier work.
The test system of a further data set is Agelastica alni. Set-up: method as in Ikonen et al. (2002). The following applies: 2.48% by weight, dual choice bioassay; ref Ikonen et al. (2002); cited from earlier work.
The subject of a further data set is Dalbulus maidis. Set-up: method as in Dowd and Vega (1996). The settings on record: adults, 400 ppm, in vitro bioassay; ref Dowd and Vega (1996); cited from earlier work.
Another data set relates to Plagiodera versicolora. Set-up: method as in Jassbi (2003). The following applies: ref Jassbi (2003); cited from earlier work.
Data set [8] relates to Lymantria dispar. Set-up: method as in Beninger et al. (2004). The following applies: 100 ppm (2.8 mM) and 1000 ppm (28 mM); ref Beninger et al. (2004); cited from earlier work.
The test system of data set [9] is Frankliniella occidentalis. Also noted: method as in Leiss et al. (2009a). The following applies: 5% (5 mg/ml); ref Leiss et al. (2009a); cited from earlier work.
A further data set deals with Helicoverpa zea. Set-up: method as in Summers and Felton (1994). The settings on record: 4 mM, ref Summers and Felton (1994), cited from earlier work.
The subject of a further data set is Trichoplusia ni. Set-up: method as in Beninger et al. (2004). The following applies: 100 ppm (2.8 mM) and 1000 ppm (28 mM); ref Beninger et al. (2004); cited from earlier work.

Consider two molecules from PMC5674125, “Towards eco-friendly crop protection: natural deep eutectic solvents and defensive secondary metabolites” (Phytochemistry Reviews, 2017).

Turning to `O=c1c(O)c(-c2ccc(O)c(O)c2)oc2cc(O)cc(O)c12` [Quercetin], the Larval mortality in the data set on Spodoptera frugiperda [1] was 78% Larval mortality at 0.1 mg/g. Moreover, the Progeny deposition entry in the data set with Aphis fabae was “Inhibitory activity on progeny deposition 0.1 M”. The “Growth, pupation, adult emergence, survival” value in the data set on Helicoverpa armigera [2] was “Deleterious effects growth, pupation and adult emergence, and survivalat 3 and 10 mg/g”. Besides, in the data set on Bactrocera Cucurbitae, the “Food assimilation, larval and pupal weight” value was “Growth regulator and or deterrent: reduction in food assimilation as well as larval and pupal weight at 125 ppm”. For the same molecule, the “Probing and feeding deterrence” value in the data set with Acyrthosiphon pisum (100 µg cm^−3) was “Probing and feeding deterrent”. For the same molecule, the “Mortality, development time, fecundity” value in the data set with Acyrthosiphon pisum (higher concentration than 100 µg cm^−3) was “mortality and development time are increased whereas fecundity is decreased”. In the data set on Spodoptera frugiperda [3], the Feeding deterrence entry was “Feeding deterrent (57%) at 100 µg/cm^2”. The molecule further displayed a Solubility in data set [4] of 44.34 ± 0.76 mg/g. For the same molecule, in the data set with Spodoptera litura, the Development entry was “Developmental retardation” and the Larval mortality is reported as more than 60%. Also, the Reduction of pupation in the data set with Helicoverpa armigera [5] (8 mg/g) is 50%. Also, the “Reduction of larval weight” value in the data set with Helicoverpa armigera [5] (16 mg/g) is approximately 50%. Moreover, in the data set with Helicoverpa armigera [5] (32 mg/g), the Mortality is given as more than 80%. The “Solubility in NADES compared to aqueous solubility” value in data set [6] is given as “significantly increased”. The Larval weight reduction entry with Lymantria dispar [7] was “Larval growth inhibitor. Larval weight reduced by 33% at 0.05% at day 15”.
In the case of `O=C(/C=C/c1ccc(O)c(O)c1)O[C@@H]1C[C@](O)(C(=O)O)C[C@@H](O)[C@H]1O` [Chlorogenic acid], the Feeding deterrence entry in the data set with Agelastica alni was “Feeding deterrent at concentration of 2.48% by weight (dual choice bioassay)”. Moreover, the Antifeedant activity entry in the data set with Dalbulus maidis is reported as “Antifeedant activity in adults at 400 ppm (in vitro bioassay)”. Besides, in the data set with Spodoptera litura, the Development result was “Developmental retardation” and the Larval mortality was more than 60%. Also, in the data set on Plagiodera versicolora, the “Amount with antifeedant activity” value was “Antifeedant activity above 50 µg/disk”. Also, the “Larval growth and development” value in the data set on Lymantria dispar [8] was “Reduced larval growth and development at 100 ppm (2.8 mM) and 1000 ppm (28 mM)”. Besides, the “Relative growth rate and survival of first instar larva” value in data set [9] is “Reduced relative growth rate and survival of first instar larva at 5% (5 mg/ml)”. In the data set on Helicoverpa zea (chronic exposure), the “Prooxidant effect on midgut proteins” value is recorded as “oxidative stress in midgut proteins”. In addition, the “Development rate, survivorship and pupal weight” value in the data set with Helicoverpa zea is “Development rate and pupal weight are negatively influenced”. In the data set on Trichoplusia ni, the “Larval growth and development” value was “Reduced larval growth and development at 100 ppm (2.8 mM) and 1000 ppm (28 mM)”.
